From ChEMBL document CHEMBL1909046, “DrugMatrix in vitro pharmacology data”

What was measured:
Caspase-1 = target: T1, Caspase-1 (Homo sapiens, UniProt P29466); set-up: species or system Escherichia coli;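 also: Caspase-1 enzyme inhibition assay with a peptide substrate; in other assays of this panel Not Active means under 50% inhibition at 10 µM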
T1 sequence (P29466 whole entry): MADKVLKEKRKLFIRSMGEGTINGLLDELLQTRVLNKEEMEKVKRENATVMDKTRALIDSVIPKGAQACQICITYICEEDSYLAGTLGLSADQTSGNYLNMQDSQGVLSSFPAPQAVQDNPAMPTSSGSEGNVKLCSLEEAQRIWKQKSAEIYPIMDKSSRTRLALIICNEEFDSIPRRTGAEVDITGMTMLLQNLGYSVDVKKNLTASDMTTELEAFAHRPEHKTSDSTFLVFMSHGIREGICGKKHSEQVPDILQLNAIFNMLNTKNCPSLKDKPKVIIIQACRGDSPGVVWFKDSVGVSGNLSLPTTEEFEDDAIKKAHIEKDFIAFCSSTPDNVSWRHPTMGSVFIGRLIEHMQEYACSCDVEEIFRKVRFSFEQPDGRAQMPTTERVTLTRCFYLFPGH

Nitric oxide synthase 1 = Nitric oxide synthase 1 (Rattus norvegicus, UniProt P29476); type: tissue-based, Cerebellum; also: in other assays of this panel Not Active means under 50% inhibition at 10 µM
Sequence of Nitric oxide synthase 1 (P29476 whole entry): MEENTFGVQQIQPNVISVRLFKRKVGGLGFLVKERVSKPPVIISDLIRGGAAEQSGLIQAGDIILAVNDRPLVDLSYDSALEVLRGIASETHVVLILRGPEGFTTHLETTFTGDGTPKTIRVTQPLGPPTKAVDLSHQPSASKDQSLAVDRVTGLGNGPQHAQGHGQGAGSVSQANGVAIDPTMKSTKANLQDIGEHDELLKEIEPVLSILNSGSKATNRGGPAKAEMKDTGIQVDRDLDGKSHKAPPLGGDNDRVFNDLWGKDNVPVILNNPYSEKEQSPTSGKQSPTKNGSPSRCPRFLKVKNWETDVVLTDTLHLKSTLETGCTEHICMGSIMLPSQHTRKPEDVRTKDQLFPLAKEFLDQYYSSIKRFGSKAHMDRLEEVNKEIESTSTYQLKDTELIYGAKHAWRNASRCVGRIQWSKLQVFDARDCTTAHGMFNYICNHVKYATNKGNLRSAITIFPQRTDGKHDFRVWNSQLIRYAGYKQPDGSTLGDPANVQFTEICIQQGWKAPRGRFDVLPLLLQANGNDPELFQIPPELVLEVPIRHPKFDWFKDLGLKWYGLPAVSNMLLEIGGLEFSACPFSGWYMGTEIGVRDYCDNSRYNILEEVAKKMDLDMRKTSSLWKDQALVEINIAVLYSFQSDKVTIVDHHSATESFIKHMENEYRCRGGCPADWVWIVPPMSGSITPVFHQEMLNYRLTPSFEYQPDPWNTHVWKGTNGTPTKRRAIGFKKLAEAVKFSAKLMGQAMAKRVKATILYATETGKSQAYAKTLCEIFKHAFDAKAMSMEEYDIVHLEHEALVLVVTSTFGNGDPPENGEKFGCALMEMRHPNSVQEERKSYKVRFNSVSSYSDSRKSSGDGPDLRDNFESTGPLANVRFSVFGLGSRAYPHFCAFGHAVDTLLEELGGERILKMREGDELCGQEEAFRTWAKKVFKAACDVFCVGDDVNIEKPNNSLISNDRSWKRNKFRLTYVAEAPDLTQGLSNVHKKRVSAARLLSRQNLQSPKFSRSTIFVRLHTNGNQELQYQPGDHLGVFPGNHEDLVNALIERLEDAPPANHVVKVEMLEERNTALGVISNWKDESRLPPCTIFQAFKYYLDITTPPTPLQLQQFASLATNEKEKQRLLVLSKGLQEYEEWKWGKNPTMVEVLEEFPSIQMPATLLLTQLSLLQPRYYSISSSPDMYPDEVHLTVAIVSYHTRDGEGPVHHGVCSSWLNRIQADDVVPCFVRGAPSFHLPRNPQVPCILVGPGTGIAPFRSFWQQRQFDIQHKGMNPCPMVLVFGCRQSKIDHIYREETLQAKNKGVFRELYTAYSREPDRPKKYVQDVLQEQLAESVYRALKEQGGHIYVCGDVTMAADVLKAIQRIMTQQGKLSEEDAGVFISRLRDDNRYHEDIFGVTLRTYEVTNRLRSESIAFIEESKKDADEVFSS

[1] = DRUGMATRIX: Sodium/nucleoside co-transporter radioligand binding (ligand: nitrobenzylthioinosine); type: cell membranes, Cavia porcellus, Dunkin-Hartley, Cerebral cortex, Membrane; settings: Not Active = under 50% inhibition at 10 µM
[2] = target: Prostaglandin G/H synthase 1 (Homo sapiens, UniProt P23219); assay: biochemical; type: tissue-based, Platelet; settings: platelet;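 also: inhibition of COX-1 enzyme activity, with arachidonic acid supplied as substrate; in other assays of this panel Not Active means under 50% inhibition at 10 µM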
Sequence of Prostaglandin G/H synthase 1 (P23219 whole entry): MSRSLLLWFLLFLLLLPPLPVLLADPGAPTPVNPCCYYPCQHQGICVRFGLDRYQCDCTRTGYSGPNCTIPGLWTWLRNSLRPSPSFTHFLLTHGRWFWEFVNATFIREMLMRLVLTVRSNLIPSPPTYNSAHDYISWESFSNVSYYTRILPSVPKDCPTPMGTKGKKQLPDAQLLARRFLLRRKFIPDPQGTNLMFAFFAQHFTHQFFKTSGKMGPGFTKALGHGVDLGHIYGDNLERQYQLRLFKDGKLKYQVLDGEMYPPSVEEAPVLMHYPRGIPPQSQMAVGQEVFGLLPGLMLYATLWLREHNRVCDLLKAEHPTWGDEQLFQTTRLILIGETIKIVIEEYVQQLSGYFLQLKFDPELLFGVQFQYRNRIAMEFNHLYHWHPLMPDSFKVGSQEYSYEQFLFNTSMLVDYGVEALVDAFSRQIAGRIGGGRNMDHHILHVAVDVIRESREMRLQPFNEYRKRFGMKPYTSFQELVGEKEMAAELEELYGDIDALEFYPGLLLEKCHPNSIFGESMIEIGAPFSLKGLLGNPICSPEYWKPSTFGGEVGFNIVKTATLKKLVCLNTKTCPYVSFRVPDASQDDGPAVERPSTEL

[3] = target: T2, Cholecystokinin receptor type A (Homo sapiens, UniProt P32238); type: cell membranes, Membrane; settings: 1321-n1; also: in other assays of this panel Not Active means under 50% inhibition at 10 µM
T2 sequence (P32238 whole entry): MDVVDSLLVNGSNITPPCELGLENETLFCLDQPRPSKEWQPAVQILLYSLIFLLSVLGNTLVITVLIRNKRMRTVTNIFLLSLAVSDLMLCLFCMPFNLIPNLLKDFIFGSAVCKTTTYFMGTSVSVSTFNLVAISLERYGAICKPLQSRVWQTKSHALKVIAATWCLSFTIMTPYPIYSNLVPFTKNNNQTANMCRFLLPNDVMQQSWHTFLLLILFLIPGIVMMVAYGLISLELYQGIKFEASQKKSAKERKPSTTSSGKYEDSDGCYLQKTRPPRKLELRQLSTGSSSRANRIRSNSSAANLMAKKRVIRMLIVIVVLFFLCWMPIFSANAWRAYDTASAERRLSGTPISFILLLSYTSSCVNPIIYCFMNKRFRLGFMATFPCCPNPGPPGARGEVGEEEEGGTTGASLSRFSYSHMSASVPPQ

[4] = target: Vascular endothelial growth factor receptor 1 (Homo sapiens, UniProt P17948); type: cell-based; settings: huvec; also: in other assays of this panel Not Active means under 50% inhibition at 10 µM
Sequence of Vascular endothelial growth factor receptor 1 (P17948 whole entry): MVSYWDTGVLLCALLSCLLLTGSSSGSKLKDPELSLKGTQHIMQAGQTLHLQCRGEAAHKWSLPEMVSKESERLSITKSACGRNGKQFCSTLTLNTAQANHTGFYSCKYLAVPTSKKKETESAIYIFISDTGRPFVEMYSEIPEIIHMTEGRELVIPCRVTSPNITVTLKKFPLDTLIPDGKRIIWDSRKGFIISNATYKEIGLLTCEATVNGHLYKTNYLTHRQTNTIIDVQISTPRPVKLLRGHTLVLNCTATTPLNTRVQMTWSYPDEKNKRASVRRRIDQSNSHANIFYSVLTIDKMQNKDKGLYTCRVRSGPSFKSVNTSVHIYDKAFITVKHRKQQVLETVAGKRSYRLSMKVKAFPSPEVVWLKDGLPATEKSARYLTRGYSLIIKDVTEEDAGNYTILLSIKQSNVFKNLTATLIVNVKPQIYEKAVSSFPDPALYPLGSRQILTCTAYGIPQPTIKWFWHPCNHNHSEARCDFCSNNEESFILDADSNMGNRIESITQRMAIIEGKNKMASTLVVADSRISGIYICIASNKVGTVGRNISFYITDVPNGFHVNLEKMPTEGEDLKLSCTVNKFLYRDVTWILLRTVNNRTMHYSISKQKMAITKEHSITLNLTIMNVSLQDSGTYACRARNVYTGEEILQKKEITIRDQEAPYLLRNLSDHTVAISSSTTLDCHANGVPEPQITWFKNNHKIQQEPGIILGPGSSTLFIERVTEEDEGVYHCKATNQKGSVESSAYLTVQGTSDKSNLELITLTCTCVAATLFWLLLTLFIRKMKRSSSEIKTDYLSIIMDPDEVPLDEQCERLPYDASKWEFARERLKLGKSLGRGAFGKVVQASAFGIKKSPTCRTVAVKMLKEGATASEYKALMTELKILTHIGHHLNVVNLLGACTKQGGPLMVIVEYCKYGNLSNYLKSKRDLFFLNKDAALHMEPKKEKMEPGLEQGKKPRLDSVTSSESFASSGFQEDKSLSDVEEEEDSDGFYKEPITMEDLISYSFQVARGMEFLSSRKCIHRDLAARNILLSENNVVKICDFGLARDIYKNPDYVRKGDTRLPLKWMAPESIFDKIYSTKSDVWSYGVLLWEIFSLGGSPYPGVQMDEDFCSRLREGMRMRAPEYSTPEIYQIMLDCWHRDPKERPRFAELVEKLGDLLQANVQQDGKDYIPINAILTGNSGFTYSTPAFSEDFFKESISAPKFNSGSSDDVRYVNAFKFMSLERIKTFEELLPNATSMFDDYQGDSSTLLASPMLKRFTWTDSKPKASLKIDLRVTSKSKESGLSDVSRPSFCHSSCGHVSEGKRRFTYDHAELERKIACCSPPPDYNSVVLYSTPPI

[5] = target: T3, Alpha-2A adrenergic receptor (Homo sapiens, UniProt P08913); type: cell membranes, Sf9, Membrane; settings: sf9; also: in other assays of this panel Not Active means under 50% inhibition at 10 µM
T3 sequence (P08913 whole entry): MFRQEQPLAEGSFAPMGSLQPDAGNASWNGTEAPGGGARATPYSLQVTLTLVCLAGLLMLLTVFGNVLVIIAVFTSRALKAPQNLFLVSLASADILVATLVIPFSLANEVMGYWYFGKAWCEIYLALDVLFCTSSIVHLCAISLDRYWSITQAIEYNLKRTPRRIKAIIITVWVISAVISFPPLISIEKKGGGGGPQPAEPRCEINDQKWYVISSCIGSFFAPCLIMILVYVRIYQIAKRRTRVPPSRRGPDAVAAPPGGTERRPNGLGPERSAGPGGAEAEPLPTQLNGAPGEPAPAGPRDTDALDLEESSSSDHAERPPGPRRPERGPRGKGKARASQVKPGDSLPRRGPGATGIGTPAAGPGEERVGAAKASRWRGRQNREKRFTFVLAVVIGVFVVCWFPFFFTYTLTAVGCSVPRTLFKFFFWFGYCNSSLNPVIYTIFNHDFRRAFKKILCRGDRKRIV

Molecule | IC50 (Caspase-1) | IC50 (Nitric oxide synthase 1) | IC50 [1] | Ki [1] | IC50 [2] | IC50 [3] | IC50 [4] | IC50 [5] | Ki (Caspase-1) | Ki (Nitric oxide synthase 1) | Ki [2] | Ki [3] | Ki [4] | IC50 ([5]; read-out: IC50) [µM] | Ki ([5]; read-out: Ki) [µM]
CCCC(CCC)C(=O)O [VALPROIC ACID] | Not Active | Not Active | Not Active | Not Active | Not Active | Not Active | Not Active | Not Active | – | – | – | – | – | – | –
CCC1=C[C@@H]2CN(C1)Cc1c([nH]c3ccccc13)[C@@](C(=O)OC)(c1cc3c(cc1OC)N(C)[C@H]1[C@@](O)(C(=O)OC)[C@H](OC(C)=O)[C@]4(CC)C=CCN5CC[C@]31[C@@H]54)C2 [VINORELBINE] | Not Active | Not Active | Not Active | Not Active | Not Active | Not Active | Not Active | Not Active | – | – | – | – | – | – | –
CADMIUM DICHLORIDE | Not Active | Not Active | Not Active | Not Active | Not Active | Not Active | Not Active | – | Not Active | Not Active | Not Active | Not Active | Not Active | 6.92 | 2.59
